Source: patent US4110465A, “7-Amino and 7-alkanoylamino 2-oxo-3-phenylindolines” (Eli Lilly and Company, priority 1977, dated 1978)

Tests used:
[1] = system: collagen-induced platelet aggregation; test: collagen-induced platelet aggregation (P.A.) inhibition after oral dosing; format: in vivo, guinea pigs; conditions: 2 doses at time zero and 2 hours later, blood removed 60 minutes after last dose, 0.05 ml. of 1:45 collagen dilution
Description: Certain of the compounds of this invention are also platelet aggregation inhibitors and the results of testing for this activity are also included in Table I. The platelet aggregation test used involves the effect of a drug upon collagen-induced platelet aggregation using the method of Hermann et al., Proc. Soc. Exp. Biol. Med. 136, 548 (1972). According to this procedure, 300-400 g. guinea pigs are used and the compound is administered by the oral route in 2 doses, at time zero and again 2 hours later, at a series of graded dose levels to groups of 4 pigs each. One group is maintained as a control group. Blood is removed by heart puncture 60 minutes after the last dose, and a platelet-rich plasma prepared therefrom. A stock collagen solution is prepared by solubilizing bovine Achilles tendon with acetic acid. The stock solution contains 0.25 percent collagen, has a pH of 2.8 and is kept under refrigeration. […] (Activity was determined by computor printout with significance at the 95 percent confidence level being attained at about the 50 percent inhibition level). In Table 1, column 1 gives the name of the compound, column 2, the ED50 for erythema blocking calculated as set forth above and column 3, the lowest active dose in the platelet aggregation test.

[2] = system: erythema produced by an ultra-violet light source on guinea pig skin; test: UV-light-induced erythema blocking on guinea pig skin (anti-inflammatory activity); format: in vivo, albino guinea pigs; conditions: Cavia porcellus; oral, suspension in 1 percent aqueous sodium carboxymethylcellulose; groups of 4 guinea pigs; obtained directly or by extrapolation; read-out: ED50 for erythema blocking (dose producing 50 percent inhibition of the erythemic response)
Description: The compounds of this invention are anti-inflammatory and anti-thrombotic agents. […] Int. Pharmacodyn, 116, 261 (1958). In this procedure, albino guinea pigs weighing 225-300 gms. are shaved on the back and chemically depilated 18 to 20 hours before initiation of the test procedures. Animals in groups of 4 are given predetermined dosages of the drug under test with one group being maintained as a control group. The drug is administered by the oral route as a suspension in 1 percent aqueous sodium carboxymethylcellulose. The control animals receive only the suspending medium. After having being given the drug or suspension medium only, each group of animals is exposed to a high-intensity ultra-violet light for a predetermined period of time, the ultra-violet light being placed in contact with the depilated skin area on the animals' back. A gummed paper reinforcement is affixed to the lamp lens to provide an unexposed area of contrast for grading the light-produced erythema.
Beginning one hour after exposure and thereafter an half-hour intervals for another 1.5 hours, a trained observer grades erythema using an arbitrary scoring system based upon the degree of contrast and redness formed. […] The following scoring system is used:
Total scores from each treatment group of four guinea pigs are compared to the control treatment, and the percent inhibition calculated as follows: [formula] […]

Structure (SMILES)	P.A., lowest active dose in the platelet aggregation test (active = about 50% inhibition of collagen-induced aggregation) [1]	ED50 [2]
Nc1cccc2c1NC(=O)C2c1ccccc1 (stereo not shown) [2-oxo-3-phenyl-7-aminoindoline]	100 mg/kg × 2	10.2 mg/kg
CC(=O)Nc1cccc2c1NC(=O)C2c1ccccc1 (stereo not shown) [N-(2-oxo-3-phenyl-7-indolinyl)-acetamide, N-(2-oxo-3-phenyl-7-indolinyl)acetamide]	3.12 mg/kg × 2	20 mg/kg
